The target in experiment [1] is T1, human dopamine D4 receptor (Homo sapiens, UniProt P21917).
T1 construct: expressed in transfected cells
T1 sequence (P21917 1-419): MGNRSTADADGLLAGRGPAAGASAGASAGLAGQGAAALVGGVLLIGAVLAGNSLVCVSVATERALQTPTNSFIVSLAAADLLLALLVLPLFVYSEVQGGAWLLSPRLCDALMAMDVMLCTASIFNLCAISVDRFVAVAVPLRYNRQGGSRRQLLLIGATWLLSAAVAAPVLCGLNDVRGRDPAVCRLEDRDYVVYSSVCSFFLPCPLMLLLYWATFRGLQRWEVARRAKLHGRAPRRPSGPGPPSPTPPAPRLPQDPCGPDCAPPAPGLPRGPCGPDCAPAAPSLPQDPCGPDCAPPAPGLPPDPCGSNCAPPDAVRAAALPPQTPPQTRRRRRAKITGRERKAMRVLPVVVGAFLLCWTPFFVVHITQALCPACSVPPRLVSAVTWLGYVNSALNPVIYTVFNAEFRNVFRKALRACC
The experiment in a line: D4 dopaminergic activity: [3H]Spiperone competition binding (assay similar to the one described). The settings on record: assay similar to the [3H]Spiperone binding assay on clonal cell lines expressing the human dopamine D4 receptor. As to the method:
The D4 dopaminergic activity of the compounds of the present invention may be determined by the following procedure.
(§1) The determination of D4 dopaminergic activity has been described by Van Tol et al., Nature, vol. 350, 610 (London, 1991). Clonal cell lines expressing the human dopamine D4 receptor are harvested and homogenized (teflon pestle) in a 50 mM Tris:HCI (pH 7.4 at 4°C) buffer containing 5 mM EDTA, 1.5 mM calcium chloride (CaCl2), 5 mM magnesium chloride (MgCL2), 5mM potassium chloride (KCI) and 120 mM sodium chloride (NaCI). The homogenates are centrifugated for 15 min. at 39,000 g, and the resulting pellets resuspended in a buffer at a concentration of 150-250 µg/ml. For saturation experiments, 0.25 ml aliquots of tissue homogenate are incubated in duplicate with increasing concentrations of [^3H] Spiperone (70.3 Ci/mmol; 10-3000 pM final concentration) for 30-120 minutes at 22°C in a total volume of 1 ml. […] Assays are terminated by rapid filtration through a Titertek cell harvester and the filters subsequently monitored for tritium as described by Sunahara, R.K. et al., Nature, 346, 76-80 (1990). […] Both saturation and competition binding data are analyzed by the non-linear least square curve-fitting program Ligand run on a digital Micro-PP-11 as described by Sunahara et al.

In another experiment the target is D2 receptor (Homo sapiens, UniProt P14416). The experiment in a line: D2 receptor binding in an assay similar to the D4 [3H]Spiperone binding assay. The settings on record: assay similar to the described [3H]Spiperone binding assay. As to the method:
as §1

Each structure is given as a SMILES string.

D2 receptor, sequence (P14416 whole entry): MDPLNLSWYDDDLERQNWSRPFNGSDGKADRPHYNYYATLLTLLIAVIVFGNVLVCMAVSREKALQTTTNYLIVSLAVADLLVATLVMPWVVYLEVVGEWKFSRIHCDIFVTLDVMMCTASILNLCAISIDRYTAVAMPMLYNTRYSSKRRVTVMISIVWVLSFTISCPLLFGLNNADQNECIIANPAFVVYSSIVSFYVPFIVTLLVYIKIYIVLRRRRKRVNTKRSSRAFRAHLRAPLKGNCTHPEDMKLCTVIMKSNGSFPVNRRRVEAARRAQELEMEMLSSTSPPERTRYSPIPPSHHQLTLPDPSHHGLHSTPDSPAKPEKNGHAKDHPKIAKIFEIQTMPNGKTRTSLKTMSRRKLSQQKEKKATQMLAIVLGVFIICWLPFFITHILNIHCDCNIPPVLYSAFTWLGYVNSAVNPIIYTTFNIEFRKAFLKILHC

Broadly, the IC50 is the concentration that inhibits the measured activity by half. A higher IC50 goes with weaker potency. Turning to `O=c1[nH]c2ccccc2n1CCCN1CCN(c2ccc(C(F)(F)F)cn2)CC1` [Example 4, 1-{3-[4-(5-Trifluoromethyl-pyridin-2-yl)-piperazine-1-yl]-propyl}-1,3-dihydrobenzoimidazol-2-one], the figures for the IC50 (in experiment [1]; at D2 receptor) were at most 110 nM and 1000 to 3300 nM, respectively.

For the molecule `O=c1[nH]c2ccccc2n1CCCN1CCN(c2ccc(Cl)cn2)CC1` [Example 1, 1-{3-[4-(5-Chloro-pyridin-2-yl)-piperazin-1-yl]-propyl}-1,3-dihydrobenzoimidazol-2-one], the values for the IC50 (in experiment [1]; on D2 receptor) were at most 110 nM and 1000 to 3300 nM, respectively.

The values above are taken from patent publication EP0765320B1, “BENZIMIDAZOLONE DERIVATIVES WITH CENTRAL DOPAMINERGIC ACTIVITY” (PFIZER INC., priority 1994, dated 1995).
